The numbers were not newly measured in PubChem BioAssay AID493017 (Abbott Labs, 2003), which cites them from elsewhere.

SMILES strings stand for the structures.

The target in the series is Cyclin-dependent kinase 2 (Homo sapiens) (UniProt P24941). In words: PubChem AID 493017. As to conditions: WOMBAT literature affinities, multiple human targets; CDK2; gene CDK2; NCBI gene 1017.
As for `O=C(Nc1cccc2cccc(NC(=O)c3ccc([N+](=O)[O-])cc3)c12)c1ccc([N+](=O)[O-])cc1`, the half-maximal inhibitory concentration (IC50) was 2940 nM.
On to `OCCNc1cc(-c2[nH]c3nccnc3c2-c2ccc(F)cc2)ccn1`, for which the IC50 is 3500 nM.
As for `CCCCCOC(=O)c1ccc(N2C(=O)c3ccc(Oc4ccc(NC(C)=O)cc4)cc3C2=O)cc1`, the concentration for half-maximal inhibition (IC50) was 3300 nM.
`O=C(Nc1cc([N+](=O)[O-])ccc1O)c1ccc(Oc2ccc(C(=O)Nc3cc([N+](=O)[O-])ccc3O)cc2)cc1`: the 50% inhibitory concentration (IC50) was 1150 nM.
Take `Cc1ccc(Nc2nc(-c3cc(C(C)(C)C)c(O)c(C(C)(C)C)c3)c(C)s2)cc1`: the 50% inhibitory concentration (IC50) was 1220 nM.
Take `COC(=O)NC1=Nc2cccc3cccc(c23)N1`: the 50% inhibitory concentration (IC50) was 4390 nM.
Take `O=C(Nc1ccccc1)Nc1sccc1OCc1ccc(Cl)cc1Cl`: the IC50 is 3370 nM.
For the compound `COC(=O)c1cc(=O)n2c(nc3cc(C(F)(F)F)ccc32)s1`, the IC50 is 7770 nM.
Turning to `CCOC(=O)Nc1nc2ccc(C=Cc3ccc(C)cc3)cc2[nH]1`, the IC50 is 7350 nM.
Regarding `CN1CCc2nc(SCc3ccc(C(C)(C)C)cc3)c(C#N)c(-c3cccs3)c2C1`, the IC50 was 1120 nM.
Regarding `CCC(C)c1cc(N)nc2nc3cc(C)c(C)cc3n12` (centres undefined), the IC50 was 6620 nM.
With `N#Cc1cnc(NC2CCCCC2)nc1N`, the half-inhibitory concentration (IC50) is 1100 nM.
`O=C(CSc1nnc(SCC(=O)Nc2nc(-c3ccccc3)cs2)s1)Nc1nc(-c2ccccc2)cs1`: the IC50 was 1310 nM.
In the case of `Nc1ccc(C(=O)Nc2ccc(-c3nc4ccc(NC(=O)c5ccc(N)cc5)cc4[nH]3)cc2)cc1`, the half-maximal inhibitory concentration (IC50) was 4510 nM.
On to `COC(=O)c1c(NC(=O)Nc2ccc(Cl)cc2)sc2c1CCN(c1ncc(C(F)(F)F)cc1Cl)C2`, for which the IC50 was 8890 nM.
Turning to `CC(=O)c1c(O)c(C)c(O)c(Cc2c(O)c3c(c(C(=O)C=Cc4ccccc4)c2O)OC(C)(C)C=C3)c1O`, the 50% inhibitory concentration (IC50) is 4550 nM.
Take `O=C(Cc1nnc(NC(=O)c2ccc([N+](=O)[O-])c(Cl)c2)s1)NNC(=O)c1ccc([N+](=O)[O-])c(Cl)c1`: the half-maximal inhibitory concentration (IC50) was 1210 nM.
On to `Cc1cc(Nc2ccc3[nH]ncc3c2)nc(NCC2CC2)n1`, for which the IC50 was 4100 nM.
For the compound `O=C(Nc1ccc([N+](=O)[O-])cc1)C(Cc1ccccc1)N1C(=O)c2cccc3cccc(c23)C1=O` (centres undefined), the IC50 is 4190 nM.
Consider `Nc1nc(NS(=O)(=O)c2ccc(C(F)(F)F)cc2)cc(-c2ccc(F)cc2)n1`, for which the IC50 is 1860 nM.
For `N#CC(=Cc1cc(O)c(O)c(O)c1)C(N)=C(C#N)C#N`, the IC50 is 1480 nM.
Turning to `Cc1cc(Cc2ccc(NC(N)=S)c(C)c2)ccc1NC(N)=S`, the half-maximal inhibitory concentration (IC50) was 2650 nM.
With `O=[N+]([O-])c1ccc(S(=O)(=O)c2ccc(Oc3ccc(S(=O)(=O)c4ccc([N+](=O)[O-])cc4)cc3)cc2)cc1`, the IC50 was 1520 nM.
Turning to `O=C(Nc1ccc(NC(=O)c2ccccc2[N+](=O)[O-])cc1)c1ccc(NC(=O)c2ccccc2[N+](=O)[O-])cc1`, the IC50 was 1370 nM.
Regarding `C#Cc1cccc(N2C(=O)c3ccc(Oc4cccc(N5C(=O)c6ccc([N+](=O)[O-])cc6C5=O)c4)cc3C2=O)c1`, the IC50 was 2830 nM.
In the case of `Cc1ccc(C(=O)Nc2ccc3c(c2)Cc2cc(NC(=O)c4ccc(C)cc4)ccc2-3)cc1`, the IC50 was 2960 nM.
On to `Cc1nc(N=C(N)NC(=O)Nc2ccc(Cl)cc2)sc1Br`, for which the 50% inhibitory concentration (IC50) is 2900 nM.
Take `c1ccc2c(c1)nc(SC1=NCCCN1)c1c3ccccc3[nH]c21`: the 50% inhibitory concentration (IC50) is 2160 nM.
In the case of `O=C(Nc1ccc(Cl)cc1)c1cc(Br)ccc1NS(=O)(=O)c1ccc(Br)c2nsnc12`, the IC50 was 3660 nM.
With `c1cnc2nc(-c3ccncc3)[nH]c2c1`, the IC50 is 3000 nM.
For the compound `O=C1c2ccc([N+](=O)[O-])c3c([N+](=O)[O-])ccc(c23)C(=O)N1c1ccc(S(=O)(=O)Nc2cc(Cl)ccc2O)cc1`, the 50% inhibitory concentration (IC50) is 1410 nM.
Consider `S=c1[nH]c(=S)c2c3c(sc2[nH]1)CN(Cc1ccccc1)CC3`, for which the IC50 is 1130 nM.
On to `Cc1cccc(NC(=O)Nc2ccc(Cc3ccc(NC(=O)Nc4cccc(C)c4)cc3)cc2)c1`, for which the half-maximal inhibitory concentration (IC50) is 4820 nM.
On to `Oc1cc(O)cc(C=Cc2ccc(O)c(O)c2)c1`, for which the 50% inhibitory concentration (IC50) is 2580 nM.

By IC50 is commonly meant the concentration that gives 50% inhibition.
